Data from paper PMC12475274, “Harnessing indole scaffolds to identify small-molecule IRE1α inhibitors modulating XBP1 mRNA splicing” (Nature Communications, 2025).
Values joined by “and” are separate entries in the source; they are usually repeats but may differ in a detail not shown here. Equal values may be shown once. Read-outs that look alike come from different tables or passages of the source.

Key:
[1] = target: T1, dephosphorylated IRE1α (547–977) (Homo sapiens, UniProt O75460); assay: FRET-based IRE1α RNase activity assay, dephosphorylated IRE1α; type: biochemical; conditions: for IC50: FRET assay; for inhibition at 50 µM: read-out: IRE1α inhibition%
T1 construct: Human IRE1α kinase and RNase domain (residues 547–977) was subcloned into pLIB plasmid; His tag (with TEV cleavage site) (N, cleaved yes); made in house; host or cells: Sf9 insect cells, baculovirus (Bac-to-Bac)
T1 sequence (O75460 547-977): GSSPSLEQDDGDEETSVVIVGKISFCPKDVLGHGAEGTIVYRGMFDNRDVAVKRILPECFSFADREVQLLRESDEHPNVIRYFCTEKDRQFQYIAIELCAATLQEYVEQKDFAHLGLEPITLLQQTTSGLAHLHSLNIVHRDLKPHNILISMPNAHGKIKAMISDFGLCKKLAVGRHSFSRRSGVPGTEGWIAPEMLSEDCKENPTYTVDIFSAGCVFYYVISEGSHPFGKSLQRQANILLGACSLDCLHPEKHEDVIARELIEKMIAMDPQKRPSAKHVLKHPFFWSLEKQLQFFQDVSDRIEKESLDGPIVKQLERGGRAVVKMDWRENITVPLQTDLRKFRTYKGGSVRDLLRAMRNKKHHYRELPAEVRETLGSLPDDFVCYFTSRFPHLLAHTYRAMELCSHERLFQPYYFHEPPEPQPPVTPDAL
Procedure: (§1) Human IRE1α kinase and RNase domain (residues 547–977) was subcloned into pLIB plasmid with a His tag and TEV cleavage site, and expressed using Bac-to-Bac expression system. The primers used are listed in Supplementary Table S3. The protein purification was performed following established procedures. Briefly, Sf9 cells were infected with baculovirus and incubated at 27 °C 110 rpm for 72 h. The cells were collected by centrifugation at 4000 × g for 15 min and the cell pellet was resuspended in lysis buffer (50 mM HEPES pH 7.5, 300 mM NaCl, 10% glycerol, 1 mM MgCl2, 1 mM TCEP, 5 mM imidazole), then supplemented with 1:10,000 benzonase (Sigma, E1014), 1 tablet/25 mL […]™ Protease Inhibitor Cocktail tablets (Sigma, S8830) and 1 mM PMSF before lysed by sonication at 4 °C. […] The protein elution was incubated with TEV protease to remove His tag at 4 °C overnight. Then the sample was diluted 1:6 in buffer (50 mM HEPES pH 7.5, 1 mM TCEP, 5% glycerol) and loaded onto a 5 mL pre-packaged Q HP anion exchange column (Cytiva, HiTrap Q HP) pre-equilibrated with QA buffer (50 mM HEPES pH 7.5, 50 mM NaCl, 1 mM TCEP, 5% glycerol). The unphosphorylated and phosphorylated protein was separated by eluting the protein with a very shallow gradient with 0-30% buffer QB (50 mM HEPES pH 7.5, 1 M NaCl, 1 mM TCEP, 5% glycerol) over 80 CV. Different peaks were collected separately and verified by LC-MS. The fully phosphorylated fraction was collected and further purified by size exclusion chromatography (Cytiva, HiLoad 16/600 Superdex 200 pg,) with SEC buffer (25 mM HEPES pH 7.5, 250 mM NaCl, 1 mM TCEP, 10% glycerol) and fractioned as monomeric peak. The rest protein fraction from the Q HP anion exchange column was incubated with Lambda protein phosphatase (New England BioLabs, P0753S) overnight at 4 °C, the dephosphorylation was confirmed by LC-MS. The unphosphorylated protein was further purified by size exclusion chromatography with the SEC buffer described above. The purified phosphorylated (p-IRE1α) and dephosphorylated (IRE1α) protein aliquots were stored at −80 °C for future usage.
The dual-labeled RNA substrate with a FAM at 5’ and the BHQ-1 at 3’ containing the XBP1 sequence (5′FAM-[…]-3′BHQ1) was purchased from Integrated DNA Technologies (IDT). The FRET-based IRE1α RNase activity assay was carried out in reaction buffer containing 20 mM HEPES pH 7.5, 50 mM KOAc, 1 mM MgOAc2, 1 mM DTT, 0.05% v/v TritonX-100, at a total reaction volume of 20 μL in a 384-well black plate (4514, Corning). For unphosphorylated IRE1α (IRE1α), a final concentration of 40 nM IRE1α protein and 100 nM RNA substrate was used. For phosphorylated IRE1 (p-IRE1α), a final concentration of 4 nM p-IRE1α protein and 200 nM RNA substrate was used. The indicated compound and IRE1α protein were incubated for 30 min at room temperature before the substrate was added to the reaction. The plate was then kinetically read over one hour at room temperature using a TECAN Spark plate reader. The measurement was carried out using the fluorescence top reading mode at the excitation wavelength of 485 nm and the emission wavelength of 535 nm with a 10 nm excitation and emission bandwidth. The linear part of the reaction curve was adopted and fitted with sample linear regression to obtain the slope, and the slope was adopted to reflect the reaction rate. The inhibition % was calculated by using the equation: inhibition% = 100 × (slope of DMSO control – slope of the sample)/(slope of DMSO control – slope of blank control), DMSO control: DMSO with protein and RNA substrate; Blank control: DMSO with RNA substrate. The IC50 values were calculated using the concentration-response model in GraphPad Prism 9. […]

p-IRE1α = target: T2, p-IRE1α (Homo sapiens, UniProt O75460); assay: Differential scanning fluorimetry (DSF), p-IRE1α; type: binding; conditions: individual replicate values
T2 construct: Human IRE1α kinase and RNase domain (residues 547–977) was subcloned into pLIB plasmid; His tag (with TEV cleavage site) (N, cleaved yes); made in house; host or cells: Sf9 insect cells, baculovirus (Bac-to-Bac)
T2 sequence (O75460 547-977): as above
Procedure: (§2) The DSF assay was performed in PBS buffer containing 2 mM DTT, in a total reaction volume of 20 µl with indicated compounds (final 1% DMSO) and the final concentration of 1 µM IRE1α protein and 5× SYPRO Orange fluorescent dye (5000× in DMSO, Sigma S5692). The melting curve was measured at a temperature range from 25 °C to 95 °C and in increments of 1 °C for 30 s using a Bio-Rad CFX96 Real-Time PCR detection system with the FRET scan mode. The melting temperature (Tm) was obtained by fitting the melting curve to Boltzmann sigmoidal in GraphPad Prism and the thermal shift (∆Tm) was calculated by using the equation: ∆Tm = Tm(compound) -Tm(DMSO).

IRE1α = target: T3, IRE1α (Homo sapiens, UniProt O75460); assay: Differential scanning fluorimetry (DSF), IRE1α; type: binding; conditions: for IRE1 ∆Tm(°C): Supplementary Fig. 3c, replicate values
T3 construct: Human IRE1α kinase and RNase domain (residues 547–977) was subcloned into pLIB plasmid; His tag (with TEV cleavage site) (N, cleaved yes); made in house; host or cells: Sf9 insect cells, baculovirus (Bac-to-Bac)
T3 sequence (O75460 547-977): as above
Procedure: as §2

[2] = target: T4, phosphorylated IRE1α (p-IRE1α) (Homo sapiens, UniProt O75460); assay: FRET-based IRE1α RNase activity assay, phosphorylated IRE1α; type: biochemical; conditions: for inhibition at 50 µM: read-out: p-IRE1α inhibition%
T4 construct: Human IRE1α kinase and RNase domain (residues 547–977) was subcloned into pLIB plasmid; His tag (with TEV cleavage site) (N, cleaved yes); made in house; host or cells: Sf9 insect cells, baculovirus (Bac-to-Bac)
T4 sequence (O75460 547-977): as above
Procedure: as §1
The dual-labeled RNA substrate with a FAM at 5’ and the BHQ-1 at 3’ containing the XBP1 sequence (5′FAM-[…]-3′BHQ1) was purchased from Integrated DNA Technologies (IDT). The FRET-based IRE1α RNase activity assay was carried out in reaction buffer containing 20 mM HEPES pH 7.5, 50 mM KOAc, 1 mM MgOAc2, 1 mM DTT, 0.05% v/v TritonX-100, at a total reaction volume of 20 μL in a 384-well black plate (4514, Corning). For unphosphorylated IRE1α (IRE1α), a final concentration of 40 nM IRE1α protein and 100 nM RNA substrate was used. For phosphorylated IRE1 (p-IRE1α), a final concentration of 4 nM p-IRE1α protein and 200 nM RNA substrate was used. The indicated compound and IRE1α protein were incubated for 30 min at room temperature before the substrate was added to the reaction. The plate was then kinetically read over one hour at room temperature using a TECAN Spark plate reader. The measurement was carried out using the fluorescence top reading mode at the excitation wavelength of 485 nm and the emission wavelength of 535 nm with a 10 nm excitation and emission bandwidth. The linear part of the reaction curve was adopted and fitted with sample linear regression to obtain the slope, and the slope was adopted to reflect the reaction rate. The inhibition % was calculated by using the equation: inhibition% = 100 × (slope of DMSO control – slope of the sample)/(slope of DMSO control – slope of blank control), DMSO control: DMSO with protein and RNA substrate; Blank control: DMSO with RNA substrate. The IC50 values were calculated using the concentration-response model in GraphPad Prism 9.

[3] = RNase activity, mean (± SEM), read-out: IRE1α IC50
[4] = source data, unit from Fig. 3 / sheet Fig. 2b, read-out: IRE1a IC50, individual replicates (n1-n4)
[5] = FRET assay, RNase activity, mean (± SEM), read-out: p-IRE1α IC50
[6] = FRET assay, source data, unit from Fig. 3, read-out: p-IRE1a IC50, individual replicates (n1-n4)
[7] = p-IRE1a, individual replicates (n1-n3), Supplementary Fig. 2b, 2c, read-out: IC50
[8] = FRET assay at 50 μM, mean (± SEM)
[9] = FRET assay at 50 μM, source data, 50 µM

COc1ccc2c(c1)c(CCC(=O)O)c(C)n2C(=O)c1cccs1 [IA03]
IC50 [1, 3]: 100 nM | IC50 [1, 4]: 73.3 nM and 110 nM and 118 nM | p-IRE1a ∆Tm(°C) (p-IRE1α; compound 6.25 μM): 0.24 °C and 0.45 °C | p-IRE1a ∆Tm(°C) (p-IRE1α; compound 12.5 μM): 0.39 °C and 0.62 °C | p-IRE1a ∆Tm(°C) (p-IRE1α; compound 25 μM): 1.04 °C and 1.05 °C | p-IRE1a ∆Tm(°C) (p-IRE1α; compound 50 μM): 1.49 °C and 1.54 °C | stabilization of IRE1α in DSF (IRE1α): concentration-dependently stabilized | IRE1 ∆Tm(°C) (IRE1α; compound 6.25 μM): 0.75 °C and 0.95 °C | IRE1 ∆Tm(°C) (IRE1α; compound 12.5 μM): 1 °C and 0.99 °C | IRE1 ∆Tm(°C) (IRE1α; compound 25 μM): 1.96 °C and 1.82 °C | IRE1 ∆Tm(°C) (IRE1α; compound 50 μM): 2.84 °C and 2.57 °C | IC50 [2, 5]: 120 nM | IC50 [2, 6]: 176 nM and 68 nM and 105 nM | IC50 [2, 7]: 176 nM and 68 nM and 105 nM

COc1ccc2c(c1)c(CCC(=O)O)c(C)n2C(=O)c1cccc(C#N)c1 [IA30]
IC50 [1, 3]: 90 nM and 85 nM | IC50 [1, 4]: 63.5 nM and 100 nM and 91.3 nM | p-IRE1a ∆Tm(°C) (p-IRE1α; compound 6.25 μM): 0.49 °C and 0.43 °C | p-IRE1a ∆Tm(°C) (p-IRE1α; compound 12.5 μM): 0.57 °C and 0.74 °C | p-IRE1a ∆Tm(°C) (p-IRE1α; compound 25 μM): 1.03 °C and 1.24 °C | p-IRE1a ∆Tm(°C) (p-IRE1α; compound 50 μM): 1.59 °C and 1.56 °C | stabilization of IRE1α in DSF (IRE1α): concentration-dependently stabilized | IRE1 ∆Tm(°C) (IRE1α; compound 6.25 μM): 0.71 °C and 0.59 °C | IRE1 ∆Tm(°C) (IRE1α; compound 12.5 μM): 1.19 °C and 1.23 °C | IRE1 ∆Tm(°C) (IRE1α; compound 25 μM): 1.84 °C and 1.88 °C | IRE1 ∆Tm(°C) (IRE1α; compound 50 μM): 2.92 °C and 2.84 °C | IC50 [2, 5]: 40 nM | IC50 [2, 6]: 57 nM and 41 nM and 21 nM | IC50 [2, 7]: 56.8 nM and 41.3 nM and 21.4 nM

COc1ccc2c(c1)c(CCC(=O)O)c(C)n2C(=O)c1ccc2ccccc2c1 [IA034]
IRE1 ∆Tm(°C) (IRE1α; compound 6.25 μM): 0.1 °C and -0.04 °C | IRE1 ∆Tm(°C) (IRE1α; compound 12.5 μM): 0.02 °C and -0.1 °C | IRE1 ∆Tm(°C) (IRE1α; compound 25 μM): 0.25 °C and 0 °C | IRE1 ∆Tm(°C) (IRE1α; compound 50 μM): -0.02 °C and 0 °C

COc1ccc2c(c1)c(CCCC(=O)O)c(C)n2C(=O)c1ccc(Cl)cc1 [cms02]
inhibition at 50 µM [1, 8]: 40.3% | IRE1a inhibition(%), individual measurements [1, 9]: 64.1986% and 50.8974% and 61.5831% and 7.967% and 17.0403% | inhibition at 50 µM [2, 8]: 42.5% | p-IRE1a Inhibiton%, individual measurements [2, 9]: 54.5805% and 55.2276% and 56.4075% and 61.6984% and 12.177% and 15.0468%

COc1ccc2c(c1)c(CC(=O)OCC(=O)O)c(C)n2C(=O)c1ccc(Cl)cc1 [cms03]
inhibition at 50 µM [1, 8]: < 30% | inhibition at 50 µM [2, 8]: < 30%

COC(=O)CCc1c(C)n(C(=O)c2ccc(Cl)cc2)c2ccc(OC)cc12 [cms04]
inhibition at 50 µM [1, 8]: < 30% | inhibition at 50 µM [2, 8]: < 30%

CCOC(=O)Cc1c(C)n(C(=O)c2ccc(Cl)cc2)c2ccc(OC)cc12 [cms05]
inhibition at 50 µM [1, 8]: < 30% | inhibition at 50 µM [2, 8]: < 30%

COC(=O)CCCc1c(C)n(C(=O)c2ccc(Cl)cc2)c2ccc(OC)cc12 [cms06]
inhibition at 50 µM [1, 8]: < 30% | inhibition at 50 µM [2, 8]: < 30%

COc1ccc2c(c1)c(CC(=O)OC(C)C)c(C)n2C(=O)c1ccc(Cl)cc1 [cms07]
inhibition at 50 µM [1, 8]: < 30% | inhibition at 50 µM [2, 8]: < 30%

COc1ccc2c(c1)c(C(C)=O)c(C)n2C(=O)c1ccc(Cl)cc1 [cms08]
inhibition at 50 µM [1, 8]: < 30% | inhibition at 50 µM [2, 8]: < 30%

COc1ccc2c(c1)c(Cc1ccccc1)c(C)n2C(=O)c1ccc(Cl)cc1 [cms09]
inhibition at 50 µM [1, 8]: < 30% | inhibition at 50 µM [2, 8]: < 30%

COc1ccc2c(c1)c(Cc1ccc(O)cc1)c(C)n2C(=O)c1ccc(Cl)cc1 [cms10]
inhibition at 50 µM [1, 8]: < 30% | inhibition at 50 µM [2, 8]: < 30%

COc1ccc2c(c1)c(CC(=O)N1CCOCC1)c(C)n2C(=O)c1ccc(Cl)cc1 [cms11]
inhibition at 50 µM [1, 8]: < 30% | inhibition at 50 µM [2, 8]: < 30%

COc1ccc2c(c1)c(CC(=O)O)c(C)n2C(=O)c1ccc(N(C)C)cc1 [idm06]
Inhibiton% @ 50 Μm ([1]; IRE1a, @ 50 Μm, individual replicates (n1-n3), Supplementary Fig. 2a): 31.43% and 32.06% and 32.96% and 41.19% and 38.68% | Inhibiton% @ 50 Μm, mean ([1]; IRE1a, @ 50 Μm, mean, Supplementary Fig. 2a): 35.27% | Inhibiton% @ 50 Μm ([2]; p-IRE1a, @ 50 Μm, individual replicates (n1-n3), Supplementary Fig. 2a): 36.04% and 36.79% and 33.53% and 36.40% and 23.29% and 29.46% | Inhibiton% @ 50 Μm, mean ([2]; p-IRE1a, @ 50 Μm, mean, Supplementary Fig. 2a): 32.58%
